Among the data in PubChem BioAssay AID1333 (NMMLSC, 2008) are EC50 values, retold here.

The target of the assay is Cell division control protein 42 homolog (Homo sapiens) (UniProt P60953). The assay can be described thus: inhibition of fluorescent GTP binding to constitutively active Cdc42 – biochemical, multiplex bead flow cytometry, Bodipy-FL-GTP, dose response (AID 1333).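 Further: potency of compounds that compete with and reduce fluorescent GTP binding.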 The note with it: bead-based flow cytometry.
On to `Cc1ccc(SC(CC(=O)c2ccc(C(C)(C)C)cc2)C(=O)O)cc1` (configuration not stated), for which the concentration for a half-maximal effect (EC50) (as a rule, the concentration needed to bring the measured effect to its halfway point) is 5.11 µM.

For the molecule `CC(=O)c1ccc(C#CC(=O)c2ccc([N+](=O)[O-])cc2)cc1`, the EC50 is 0.989 µM.

As for `NS(=O)(=O)c1ccc(N2N=C(c3ccccc3)CC2c2cccc(F)c2)cc1` (configuration not stated), the EC50 was 9.59 µM.

Turning to `COc1cccc(NC(=O)COC(=O)/C=C/c2ccc(Cl)cc2Cl)c1`, the EC50 was 3.53 µM.

Turning to `CCOc1ccc(/C=C2\SC(N3CCc4ccccc4C3)=NC2=O)cc1`, the EC50 is 16.5 µM.

For `Cc1ccc(C)c(OCCn2cc(C(=O)O)c3ccccc32)c1`, the EC50 was 0.358 µM.

Regarding `Cc1nc2c(=O)n(C)c(=O)nc-2n(C)n1`, the EC50 was 1.61 µM.

As for `Cc1cc(C(=O)Cn2nc(C(=O)O)c3ccccc3c2=O)c(C)n1-c1ccc(OC(F)F)cc1`, the EC50 was 4.89 µM.

On to `COc1cccc(-n2nnnc2S(C)(=O)=O)c1`, for which the EC50 is 15.4 µM.

`OC(CNCCc1ccc(Cl)cc1)COc1ccc2ccccc2c1` (configuration not stated): the EC50 was 11.3 µM.

In the case of `Cc1cc(C)c(C)c(C(=O)c2ccccc2C(=O)O)c1C`, the EC50 was 4.95 µM.

With `COc1ccc(C2CC(c3ccccc3)=NN2c2ccc(S(N)(=O)=O)cc2)cc1` (configuration not stated), the half-maximal effective concentration (EC50) was 8.04 µM.

Regarding `O=C(O)/C=C/c1cn(Cc2ccccc2)nc1-c1cccs1`, the half-maximal effective concentration (EC50) is 2.18 µM.

In the case of `CCCN1C(=O)/C(=C/C=C2\N(CC)c3ccccc3C2(C)C)SC1=S`, the EC50 was 5.59 µM.

`O=C(NCc1ccc2c(c1)OCO2)c1ccc(CSCc2cccc(Cl)c2)o1`: the EC50 is 20.6 µM.

With `CCCc1nc2c(=O)n(C)c(=O)nc-2n(C)n1`, the EC50 is 1.77 µM.

Regarding `Cc1ccc(-n2c(-c3cnccn3)n[nH]c2=S)c(Br)c1`, the EC50 was 53.8 µM.

`COc1ccc(-c2cc(C#N)nc(N3CCNCC3)n2)cc1`: the EC50 was 27.1 µM.

As for `COC(=O)c1cccnc1SCCc1ccccc1`, the EC50 was 24.2 µM.

Take `CCc1ccc(NS(=O)(=O)c2ccc3[nH]cc(C(=O)N4CCc5ccccc54)c(=O)c3c2)cc1`: the EC50 is 50.1 µM.

On to `O=C(O)c1cc(Sc2ccc(Cl)cc2)nc2ccccc12`, for which the EC50 is 18.7 µM.

As for `Cc1ccc(NC(=O)C2=C(c3ccccc3)S(=O)(=O)CCS2(=O)=O)cc1`, the EC50 is 58.7 µM.

For `CCOC(=O)c1cc([N+](=O)[O-])c([N+](=O)[O-])cc1NC(C)=O`, the EC50 is 7.18 µM.

Take `O=C(C#Cc1ccccc1)c1cccc([N+](=O)[O-])c1`: the EC50 was 13.5 µM.

`CCn1nc(/C=C/c2ccccc2)nc2c(=O)n(C)c(=O)nc1-2`: the EC50 was 1.44 µM.

As to `O=C(C#Cc1ccc(F)cc1)c1ccc([N+](=O)[O-])cc1`, the EC50 was 3.55 µM.

Turning to `O=C(Nc1nnc(-c2ccc3c(c2)OCCO3)o1)c1ccc(Cc2ccccc2)cc1`, the EC50 was 2.79 µM.

Consider `O=C(C#CC1CCCCC1)c1ccc([N+](=O)[O-])cc1`, for which the EC50 was 45.9 µM.

For `CS(=O)(=O)c1ccc(C(=O)OCC(=O)NC(=O)C2CCCCC2)cc1[N+](=O)[O-]`, the EC50 was 12.9 µM.

Regarding `CC(C)C(NCc1c(Cl)cccc1Cl)C(=O)O` (configuration not stated), the EC50 was 5.85 µM.

As for `O=C(O)c1ccccc1NCCc1ccc(Cl)cc1`, the EC50 was 0.885 µM.

For `Cc1nn(Cc2ccccc2)c(Cl)c1C(=O)O`, the EC50 is 13.9 µM.

With `Cc1cccc2cc(CN(Cc3cccs3)C(c3nnnn3C3CCCC3)C(C)C)c(=O)[nH]c12` (configuration not stated), the EC50 was 1.63 µM.

In the case of `N#Cc1c(-c2ccccc2)nc(SCC(=O)Nc2ccccc2)[nH]c1=O`, the EC50 is 1.66 µM.

`O=C(NCc1cccs1)c1cccnc1C(=O)O`: the EC50 was 4.31 µM.

Consider `O=C(Nc1ccccc1)C1=C(c2ccccc2)S(=O)(=O)CCS1(=O)=O`, for which the EC50 was 43.9 µM.

For `O=C(O)c1ccccc1Sc1ncnc2sc3c(c12)CCC3`, the EC50 was 1.84 µM.
